Laboratory results as given in patent publication US7544497B2, “Compositions for manipulating the lifespan and stress response of cells and organisms” (President and Fellows of Harvard College, priority 2003, dated 2009).

Columns and labels:
[1] = tested on: rDNA recombination; experiment: Ribosomal DNA recombination frequency (loss of ADE2 marker); type: cell-based, S. cerevisiae; conditions: SIR2-dependent
[2] = tested on: lysine 382 of p53 in U2OS osteosarcoma cells; experiment: p53 Ac-K382 Western blot after UV radiation; type: cell-based, human
[3] = tested on: C. elegans; experiment: C. elegans lifespan assay; type: in vivo
Procedure: Thus, the presence of resveratrol in the growth media of C. elegans extends their lifespan.
Bristol N2 (Caenorhabditis Genetics Center) was used as the wild-type strain. The sir-2.1 mutant strain was generated by backcrossing VC199 (sir-2.1 (ok434)) to N2 four times. Cultures were grown on standard NGM media and maintained on E. coli strain OP50. For the lifespan assays, synchronized animals were transferred to treatment plates as young adults (2 d after hatching, day 0 of assay), and were transferred to fresh treatment plates every 2 days for the first 6 to 8 days of the assay. […] For some lifespan trials, heat-killed OP50 were used as a food source. OP50 cultures were heated to 65° C. for 30 minutes, then pelleted and resuspended in 1/10 volume in S Basal supplemented with 10 mM MgSO4. In all assays, worms were monitored daily for mortality by gently probing with a platinum pick. Assays were performed at 24° C.

[4] = tested on: Human 293 cells; experiment: Survival of 293 cells (Coulter counter); type: cell-based; conditions: 50 micromolar
Procedure: Human 293 were grown to exponential phase under standard conditions and subjected to a dose of compound (50 micromolar) for 96 hours. The number of live cells each time point was counted using a Coulter counter.

[5] = target: T1, recombinant dSir2 (Drosophila melanogaster, UniProt Q9VK34); experiment: dSir2 deacetylation assay (Fluor de Lys); type: biochemical, D. melanogaster; conditions: dose-dependent; 25 μM NAD+, 10 μM FdL
T1 sequence (Q9VK34 1-823): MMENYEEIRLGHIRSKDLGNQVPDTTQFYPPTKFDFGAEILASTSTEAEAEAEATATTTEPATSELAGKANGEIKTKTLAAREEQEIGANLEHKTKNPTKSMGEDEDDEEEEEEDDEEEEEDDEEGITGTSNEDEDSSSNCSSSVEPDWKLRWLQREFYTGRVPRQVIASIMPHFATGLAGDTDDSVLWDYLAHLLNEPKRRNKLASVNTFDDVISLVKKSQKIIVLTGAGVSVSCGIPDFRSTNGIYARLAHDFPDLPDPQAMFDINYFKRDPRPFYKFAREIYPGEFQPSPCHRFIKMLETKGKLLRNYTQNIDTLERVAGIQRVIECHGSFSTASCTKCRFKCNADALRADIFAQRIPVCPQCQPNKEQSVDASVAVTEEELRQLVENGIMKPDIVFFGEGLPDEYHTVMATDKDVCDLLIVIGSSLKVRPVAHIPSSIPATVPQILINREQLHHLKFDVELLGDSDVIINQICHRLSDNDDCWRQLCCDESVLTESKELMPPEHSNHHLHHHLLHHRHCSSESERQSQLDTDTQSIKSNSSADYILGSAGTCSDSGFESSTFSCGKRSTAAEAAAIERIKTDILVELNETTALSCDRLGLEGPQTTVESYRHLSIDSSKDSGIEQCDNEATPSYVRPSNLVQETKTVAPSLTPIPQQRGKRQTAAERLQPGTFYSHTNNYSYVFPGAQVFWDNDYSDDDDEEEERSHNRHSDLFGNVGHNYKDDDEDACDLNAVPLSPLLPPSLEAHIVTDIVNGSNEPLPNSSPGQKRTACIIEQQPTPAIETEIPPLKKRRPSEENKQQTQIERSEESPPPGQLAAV
Procedure: His6-tagged recombinant SIR-2.1 and dSir2 were purified from E. coli BL21(DE3) plysS cells harboring either pET28a-sir-2.1 or pRSETc-dSir2 plasmids. Cells were grown in LB medium containing kanamycin (50 μg/mL) for pET28a-sir-2.1 or ampicillin (100 μg/ml) and chloramphenicol (25 μg/ml) for pRSETc-dSir2 at 30° C. (dSir2) or 37° C. (SIR-2.1) to an OD600 of 0.6-0.8.
From 0.1 to 1 μg of SIR-2.1 and 1 μg of dSir2 were used per deacetylation assay as previously described with modifications (SIR-2.1: 200 μM NAD^+, 10 μM Fluor de Lys, FdL; dSir2: 25 μM NAD^+, 10 μM FdL)^26. […] Drosophila S2 cells were grown in Schneider media with fetal calf serum at 23-28° C., seeded at 9×10^4 cells/well, grown overnight and then exposed to 1 μM TSA, 500 μM polyphenols, and 200 μM FdL for 2 hr. […] Unless otherwise indicated all initial rate measurements were means of three or more replicates obtained with single incubation times, at which point 5% or less of the substrate initially present was deacetylated.

[6] = tested on: D. melanogaster; experiment: D. melanogaster adult survival assay; type: in vivo
Procedure: Survival assays were conducted independently with adult D. melanogaster in two laboratories. In the first laboratory, all trials used an yw marked wild-type strain. […] Newly eclosed adults were placed in 1L demography cages with approximately 75 males and 75 females. Three to four replicate 1L demography cages were used for each treatment group in each trial. Every two days, dead flies were removed and scored, and food vials were replenished. Food vials contained cornmeal-sugar-yeast diet with SAF yeast as either 2% or 3% by weight. […] Fresh stock solutions and adult media were prepared weekly. In the second laboratory, lifespan trials were conducted with the wild type strain Canton-S, dSir2^4.5 and […], University of Oregon), […], Stockholm University, Sweden), and dSir2^KG00871 (Drosophila Stock Center, Bloomington, Ind.). Larvae for all tests were reared on standard cornmeal-sugar-yeast diet. […] In all trials, 20 males with 20 females were placed into each of 10 vials/treatment group. Every two days, flies were passed into new vials and dead flies were counted. […] Fresh stock solution and adult media was prepared weekly.

[7] = D. melanogaster body mass; type: in vivo; conditions: 10 μM, 15% SY diet
Procedure: Feeding rate was measured in yw females with the crop-filling assay^27. […] The presence of dye-marked food in the crop was scored in sets of 20 females across five 5-minute intervals. […] Males and females were weighed daily.

Oc1ccc(/C=C/c2cc(O)cc(O)c2)cc1 [Resveratrol, 3,5,4′-Trihydroxy-trans-stilbene]
reduction of the frequency of rDNA recombination [1]: ~60% | level of Ac-K382 compared to untreated cells ([2]; 0.5 μM resveratrol, 4 hours pre-treatment, UV radiation): marked decrease | level of Ac-K382 at higher concentrations ([2]; >50 μM resveratrol): the effect was reversed | lifespan extension ([3]; sir-2.1 mutants, 100 μM, heat-killed OP50, not statistically significant): 5.2% | lifespan extension ([3]; sir-2.1 mutants, 100 μM, live OP50, P=0.81): 3.3% | lifespan extension ([3]; wild-type N2, 100 μM, live OP50): 12.6% | lifespan extension (up to) ([3]; wild-type worms, 100 μM, heat-killed or live E. coli): up to 15% | Survival of 293 cells ([4]; 0 h): 100% | Survival of 293 cells ([4]; 48 h): 5% | Survival of 293 cells ([4]; 96 h): 0% | stimulation of deacetylation, dSir2 (up to) [5]: ≤ 2.4 fold | lifespan increase (up to) ([6]; Canton-S/dSir2^KG0087): up to 17% | lifespan in flies lacking or severely decreased in dSir2 ([6]; dSir2^4.5/dSir2^5.26 or dSir2^17/dSir2^KG00871, 100 μM): failed to extend lifespan | longevity increase in flies homozygous for a hypomorphic dSir2 allele ([6]; dSir2^KG0087/dSir2^KG0087): small but statistically significant amount | longevity on restricted diet ([6]; restricted diet): neither resveratrol nor fisetin further increased longevity | lifespan extension (up to) ([6]; wild type, males and females, independent tests): up to 29% | body weight [7]: normal weight
